Here are results for six compounds from patent US20150293106A1, “DIAROMATIC AMINO ACID SUBSTRATE FOR CATHEPSIN DETECTION” (INDUSTRY-ACADEMIC COOPERATION FOUNDATION, YONSEI UNIVERSITY, priority 2012, published 2015).

For assay [1], the target named is T1, cathepsin L (Homo sapiens, UniProt P07711).
T1 construct: cathepsins B and L derived from a human liver; purchased Sigma-Aldrich Chemical Co; host or cells: human liver
Nature of the assay: Selective hydrolysis by cathepsins, fluorescence (FIG. 20). It counts as biochemical. The method, then:
(§1) The reaction was performed under alkaline conditions.
(§2) The results of experiments were illustrated in FIG. 20. Since the hydrolysis by cathepsin B was faster than the hydrolyses by papain and chymopapain, the reaction was performed with a substrate (concentration: 1.0 μM) and a protease (concentration: […]) of which the concentrations were set lower than those in Experimental Example 2 (substrate (concentration: 2.5 μM) and protease (concentration: 0.1 μM) reacted for two hours) for 30 minutes in FIG. 20. C1, C2, CB, CL, and CS represented on an X-axis respectively denote papain, chymopapain, cathepsin B, cathepsin L, and cathepsin S. Each experiment was repeated at least three times.

The target in assay [2] is T2, cathepsin B (Homo sapiens, UniProt P07858). Described as above. It counts as biochemical. More on the design: cathepsins B and L derived from a human liver; purchased Sigma-Aldrich Chemical Co; host or cells: human liver. The method, then: as §1, §2
Assay [3] concerns the target T3, papain (Carica papaya, UniProt P00784).
T3 construct: papain and chymopapain derived from papaya latex; purchased Sigma-Aldrich Chemical Co; host or cells: papaya latex
T3 sequence (P00784 134-345): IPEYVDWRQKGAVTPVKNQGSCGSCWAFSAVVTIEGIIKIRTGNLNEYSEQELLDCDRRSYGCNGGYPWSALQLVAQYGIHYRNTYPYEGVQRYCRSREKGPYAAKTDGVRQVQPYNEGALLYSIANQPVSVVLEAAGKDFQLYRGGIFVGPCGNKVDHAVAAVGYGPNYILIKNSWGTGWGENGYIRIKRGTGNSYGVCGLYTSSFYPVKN
Description: Degree of hydrolysis by protease (Table 3). It counts as biochemical, papaya latex. Conditions: after 2 hours; protease 10 μM; substrate 0.2 mM (G1-G3, L1-L3) or 0.1 mM (G4, L4); hydrolysate INH. The method, then:
(§3) A hydrolysate was measured using a HPLC system.

The next assay addresses T4, cathepsin S (Homo sapiens, UniProt P25774).
T4 construct: cathepsin S derived from a human spleen; purchased Sigma-Aldrich Chemical Co; host or cells: human spleen
Nature of the assay: Selective hydrolysis by cathepsins, fluorescence (FIG. 20). The conditions noted are these: substrate 1.0 μM, protease 10 mM, 30 minutes. It counts as biochemical. The method, then: as §1, §2

The test system of assay [4] is cysteine protease (papain, chymopapain, bromelain). Description: Protease-catalyzed hydrolysis, restored DBDY fluorescence (selectivity, FIGS. 11-19). Conditions: substrate 2.5 μM, protease 0.1 μM, two hours. It counts as biochemical, papaya latex; pineapple stem. The method, then:
as §1
(§4) The hydrolysis reaction was performed for two hours. […] Each experiment was repeated at least three times.

Assay [5] concerns other proteases (non-cysteine proteases of the 13-protease panel). The description is as above. It counts as biochemical. Conditions: substrate 2.5 μM, protease 0.1 μM, two hours. The method, then:
as §1, §4

Assay [6] has as its target T2, cathepsin B. Nature of the assay: Michaelis-Menten kinetics of hydrolysis by cysteine protease (Table 4). It counts as biochemical. More on the design: cathepsins B and L derived from a human liver; purchased Sigma-Aldrich Chemical Co; host or cells: human liver. The conditions noted are these: average and standard deviation, at least 3 experiments. The method, then:
as §1

Another assay deals with thermolysin (Bacillus thermoproteolyticus, UniProt P00800). The conditions noted are these: after 2 hours; protease 10 μM; substrate 0.2 mM (G1-G3, L1-L3) or 0.1 mM (G4, L4); n.d. = no hydrolysis was detected; hydrolysate INH. The method, then:
For the meaningful comparison of proteases, a hydrolysis reaction was performed under the optimum conditions as reported in other documents (regarding chymotrypsin, subtilisin, thermolysin and pepsin, refer to R. Beynon, J. S. Bond, Proteolytic Enzymes (Second Edition), Oxford University Press, 2001, pp. 295-316; regarding trypsin, proteinase K, carboxy peptidase A, collagenase, dispase, aspergillopepsin, papain, chymopapain, bromelain, cathepsin B, cathepsin L, and cathepsin S, refer to the catalog of Sigma-Aldrich Corporation).
Before the reaction, the mixtures of the reaction buffer solutions and proteases were previously incubated for 30 minutes in a water bath in which the temperature was adjusted to an analysis temperature. The hydrolysis reaction was initiated by adding a substrate dissolved in DMSO. The volume of the added substrate solution was controlled such that the final concentration of DMSO was lower than 1.5% (v/v).
A hydrolysate was measured using a HPLC system. In order to prepare a sample, a hydrolysis reaction was terminated by adding 2% (v/v) 1M HCl with respect to a serine protease, cysteine protease and metalloprotease, and adding 1M NaOH with respect to an aspartic protease. The separation was performed using the mixture of 10 mM-ammonium bicarbonate and acetonitrile as an eluent in C-18 column (particle size: 5 μm, 250 mm×4.6 mm, pore size: 80 Å, Phenomenex, USA). The elution was performed for 15 minutes, while the linear gradient of acetonitrile was increased from 0 to 60%. The flow rate and separation temperature of the eluent were maintained at 1 mL min^−1 and 35° C. The hydrolysate was detected at a wavelength of 254 nm.
Based on the report that a hydrophobic amino acid such as phenylalanine was preferred at a P2 position in most of the papain-like cysteine proteases, Boc-aromatic amino acid-Gly-INH and Boc-aromatic amino acid-Lys-INH were prepared in particular, and experimented as a substrate with respect to chymotrypsin, trypsin, papain, pepsin and thermolysis.

In the next assay the target is T5, pepsin (Sus scrofa, UniProt P00791).
T5 construct: pepsin derived from pig gastric mucosa; purchased Sigma-Aldrich Chemical Co; host or cells: pig gastric mucosa
T5 sequence (P00791 60-385): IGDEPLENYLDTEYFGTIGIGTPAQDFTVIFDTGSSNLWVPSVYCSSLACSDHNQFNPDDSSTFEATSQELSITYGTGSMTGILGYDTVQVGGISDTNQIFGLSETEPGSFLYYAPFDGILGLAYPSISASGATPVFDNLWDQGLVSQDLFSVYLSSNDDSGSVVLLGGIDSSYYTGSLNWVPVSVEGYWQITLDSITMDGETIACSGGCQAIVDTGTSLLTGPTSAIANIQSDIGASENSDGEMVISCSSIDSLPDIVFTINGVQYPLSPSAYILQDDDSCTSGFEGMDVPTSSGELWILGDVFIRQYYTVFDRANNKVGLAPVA
Nature of the assay: Degree of hydrolysis by protease (Table 3). It counts as biochemical, pig. The conditions noted are these: after 2 hours; protease 10 μM; substrate 0.2 mM (G1-G3, L1-L3) or 0.1 mM (G4, L4); n.d. = no hydrolysis was detected; hydrolysate INH. The method, then: as §3

Another assay deals with T6, chymopapain (Carica papaya, UniProt P14080).
T6 construct: papain and chymopapain derived from papaya latex; purchased Sigma-Aldrich Chemical Co; host or cells: papaya latex
T6 sequence (P14080 135-352): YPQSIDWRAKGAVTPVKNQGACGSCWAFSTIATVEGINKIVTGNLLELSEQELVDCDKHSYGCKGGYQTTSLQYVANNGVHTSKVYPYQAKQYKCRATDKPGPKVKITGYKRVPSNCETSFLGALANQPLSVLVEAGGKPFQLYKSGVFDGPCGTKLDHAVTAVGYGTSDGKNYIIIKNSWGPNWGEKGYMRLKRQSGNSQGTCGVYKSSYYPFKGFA
Description: Michaelis-Menten kinetics of hydrolysis by cysteine protease (Table 4). It counts as biochemical, papaya latex. Conditions: average and standard deviation, at least 3 experiments. The method, then: as §1

Assay [7] concerns the target T3, papain. The assay is described as above. It counts as biochemical, papaya latex. The conditions noted are these: average and standard deviation, at least 3 experiments. The method, then: as §1
The next assay has as its target T7, chymotrypsin (Bos taurus, UniProt P00766).
T7 construct: chymotrypsin and trypsin derived from fetal bovine pancreas; purchased Sigma-Aldrich Chemical Co; host or cells: bovine pancreas
Description: Degree of hydrolysis by protease (Table 3). It counts as biochemical, bovine. Conditions: after 2 hours, protease 10 μM, substrate 0.2 mM (G1-G3, L1-L3) or 0.1 mM (G4, L4), n.d. = no hydrolysis was detected, hydrolysate Gly-INH (G), Lys-INH (L1-L3). The method, then: as §3

The target in assay [8] is T1, cathepsin L. Nature of the assay: Michaelis-Menten kinetics of hydrolysis by cysteine protease (Table 4). It counts as biochemical. Conditions: average and standard deviation, at least 3 experiments. The method, then: as §1
For assay [9], the target named is T8, trypsin (Bos taurus, UniProt P00760).
T8 construct: chymotrypsin and trypsin derived from fetal bovine pancreas; purchased Sigma-Aldrich Chemical Co; host or cells: bovine pancreas
T8 sequence (P00760 24-246): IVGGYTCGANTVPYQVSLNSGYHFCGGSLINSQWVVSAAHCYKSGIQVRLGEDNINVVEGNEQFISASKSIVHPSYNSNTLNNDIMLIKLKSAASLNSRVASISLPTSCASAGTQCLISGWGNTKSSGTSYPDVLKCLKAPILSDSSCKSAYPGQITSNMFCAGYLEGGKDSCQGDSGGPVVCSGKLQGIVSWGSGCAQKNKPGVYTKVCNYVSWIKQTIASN
Description: Protease-catalyzed hydrolysis, restored DBDY fluorescence (selectivity, FIGS. 11-19). It counts as biochemical, bovine. Conditions: substrate 2.5 μM, protease 0.1 μM, two hours. The method, then:
as §1, §4

The target of assay [10] is T8, trypsin. Description: Degree of hydrolysis by protease (Table 3). It counts as biochemical, bovine. The conditions noted are these: after 2 hours; protease 10 μM; substrate 0.2 mM (G1-G3, L1-L3) or 0.1 mM (G4, L4); n.d. = no hydrolysis was detected; hydrolysate INH. The method, then:
as §3

Assay [11] deals with T2, cathepsin B. The conditions noted are these: reported for other substances, cited from earlier work.
The mark [12] stands for this setting: inventors' earlier research on DBDY-(INH)2, conditions not given.
Where [13] appears, read: substrate 1.0 μM, protease 10 mM, 30 minutes.

“Also recorded” adds a separate entry of the source. Like-named read-outs stand apart in the source and are kept apart here. Marks after values point to notes of the source that are not given here. Where no end group is shown, it is not given here. [ ]: non-standard residue; d: D form. The star is where a group is joined. Dnp = O=[N+]([O-])c1ccc(*)c([N+](=O)[O-])c1; 2Abz = Nc1ccccc1C(=O)O

T1 sequence (P07711 114-333): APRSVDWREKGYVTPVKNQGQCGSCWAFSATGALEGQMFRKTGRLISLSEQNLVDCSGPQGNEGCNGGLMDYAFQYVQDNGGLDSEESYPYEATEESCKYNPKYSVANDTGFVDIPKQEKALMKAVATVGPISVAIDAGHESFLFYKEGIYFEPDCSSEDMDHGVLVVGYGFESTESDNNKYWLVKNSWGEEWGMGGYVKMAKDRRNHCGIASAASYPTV
T4 sequence (P25774 115-331): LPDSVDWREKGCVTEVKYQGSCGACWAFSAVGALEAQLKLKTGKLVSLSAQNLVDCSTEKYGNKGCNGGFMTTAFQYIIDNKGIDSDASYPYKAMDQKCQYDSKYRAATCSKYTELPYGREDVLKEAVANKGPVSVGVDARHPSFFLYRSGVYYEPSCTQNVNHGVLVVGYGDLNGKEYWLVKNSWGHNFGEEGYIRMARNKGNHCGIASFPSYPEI
Sequence of thermolysin (P00800 233-548): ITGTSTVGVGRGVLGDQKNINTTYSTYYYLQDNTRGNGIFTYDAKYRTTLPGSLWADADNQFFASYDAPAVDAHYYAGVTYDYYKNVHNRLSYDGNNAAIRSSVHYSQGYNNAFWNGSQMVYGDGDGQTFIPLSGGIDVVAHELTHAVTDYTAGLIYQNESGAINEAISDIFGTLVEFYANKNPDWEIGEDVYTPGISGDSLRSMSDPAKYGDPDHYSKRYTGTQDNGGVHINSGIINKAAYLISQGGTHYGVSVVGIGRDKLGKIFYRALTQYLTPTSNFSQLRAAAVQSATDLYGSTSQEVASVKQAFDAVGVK

Take `CC(C)(C)OC(=O)NC(Cc1ccc(O)c(-c2cc(CC(NC(=O)OC(C)(C)C)C(=O)NNC(=O)c3ccncc3)ccc2O)c1)C(=O)NNC(=O)c1ccncc1` (stereo not shown) [DBDY-(INH)2, reference compound]: the “hydrolysis by cathepsin L” value on cathepsin L [1] (setting [12]) was “not hydrolyzed”. On cathepsin B [2] (setting [12]), the “hydrolysis by cathepsin B” value is recorded as “not hydrolyzed”.

For `CC(C)(C)OC(=O)NC(Cc1ccc(O)c(-c2cc(CC(NC(=O)OC(C)(C)C)C(=O)NCC(=O)NNC(=O)c3ccncc3)ccc2O)c1)C(=O)NCC(=O)NNC(=O)c1ccncc1` (stereo not shown) [Substrate G4, DBDY-(Gly-INH)2], the “degree of hydrolysis by Papain” value on papain [3] is recorded as 62.2 ± 2.1%. At cathepsin S, the “hydrolysis by cathepsin S” value was “not hydrolyzed”. Besides, at cathepsin L [1] (setting [13]), the “hydrolysis by cathepsin L” value is reported as “hydrolyzed only by cathepsin B”. In addition, the “hydrolysis by cysteine proteases (increased fluorescence)” value in assay [4] was “showed sensitivity and selectivity for the cysteine protease; also recorded: selectivity for cysteine proteases”. Moreover, the “hydrolysis by other (non-cysteine) proteases” value in assay [5] is “no hydrolysis by other proteases”. In addition, the Kcat at cathepsin B [6] came to 0.67 ± 0.06 min⁻¹; at chymopapain it was 0.34 ± 0.03 min⁻¹; at papain [7], 1.54 ± 0.30 min⁻¹; at cathepsin L [8], 0.09 ± 0.02 min⁻¹. Also, the Michaelis constant (Km) turned out to be 2880 nM on cathepsin B [6], 4 ± 0.25 µM on chymopapain, 7.72 ± 1.25 µM at papain [7] and 12.9 ± 3.69 µM on cathepsin L [8]. For the same compound, on thermolysin, the “degree of hydrolysis by Thermolysin” value amounted to 0.74 ± 0.03%. For the same compound, on pepsin, the “degree of hydrolysis by Pepsin” value was found to be 2.98 ± 0.07%. On chymotrypsin, the “degree of hydrolysis by Chymotrypsin” value is listed as “hardly hydrolyzed”. In addition, the “hydrolysis by cathepsin B” value at cathepsin B [2] (setting [13]) is “hydrolyzed only by cathepsin B”.

Regarding `CC(C)(C)OC(=O)NC(Cc1ccc(O)c(-c2cc(CC(NC(=O)OC(C)(C)C)C(=O)NC(CCCCN)C(=O)NNC(=O)c3ccncc3)ccc2O)c1)C(=O)NC(CCCCN)C(=O)NNC(=O)c1ccncc1` (stereo not shown) [Substrate L4, DBDY-(Lys-INH)2], on papain [3], the “degree of hydrolysis by Papain” value was 44.9 ± 2.8%. Moreover, the “hydrolysis by cathepsin S” value at cathepsin S is listed as “not hydrolyzed”. In addition, the “hydrolysis by cathepsin L” value on cathepsin L [1] (setting [13]) is reported as “hydrolyzed”. In addition, in [4], the “hydrolysis by cysteine proteases (increased fluorescence)” value is “hydrolyzed; also recorded: selectivity for cysteine proteases”. For the same compound, the Kcat on cathepsin B [6] amounted to 2.17 ± 0.15 min⁻¹; on chymopapain, 0.03 ± 0.01 min⁻¹; on papain [7] it was 1.04 ± 0.11 min⁻¹; at cathepsin L [8], 0.20 ± 0.01 min⁻¹. The Km at cathepsin B [6] amounted to 2010 ± 50 nM; on chymopapain, 2.2 ± 0.28 µM; on papain [7], 7.2 ± 0.8 µM; on cathepsin L [8], 1.17 ± 0.09 µM. Further, at pepsin, the “degree of hydrolysis by Pepsin” value is given as 1.04 ± 0.03%. Besides, the “hydrolysis by trypsin (increased fluorescence)” value at trypsin [9] is “hydrolyzed; also recorded: slightly hydrolyzed”. Also, the “degree of hydrolysis by Trypsin” value on trypsin [10] is 46.8 ± 1.7%. For the same compound, the results for the “degree of hydrolysis by Chymotrypsin” value on chymotrypsin and on chymotrypsin (listed as DBDY-(Lys-INH)2) were 7.15 ± 0.47 ^c % and “hardly hydrolyzed”, respectively. Also, the “hydrolysis by cathepsin B” value on cathepsin B [2] (setting [13]) is “hydrolyzed”.

On to “Abz-Gly-Ile-Val-Arg-Ala-Lys(Dnp)-OH ([2Abz]GIVRAK(Dnp)-OH)”, for which, in the assay with cathepsin B [11] (unit inferred), the Michaelis-Menten constant (Km) is 5900 nM.

Regarding Abz-Phe-Arg-Dap(Dnp)-Trp-OH, the Km at cathepsin B [11] is 3000 nM.

Turning to Abz-Phe-Phe-Dap(Dnp)-Trp-OH, the Michaelis-Menten constant (Km) at cathepsin B [11] is 2100 nM.

Broadly, the Km is the substrate concentration at which the rate is half of its maximum.
